This note sets out measurements from ChEMBL document CHEMBL5506002, “The discovery of potent USP2/USP8 dual-target inhibitors for the treatment of breast cancer via structure guided optimization of ML364” (Eur J Med Chem, 2024).

Series [1] deals with T1, Ubiquitin carboxyl-terminal hydrolase 2 (Homo sapiens, UniProt O75604).
T1 sequence (O75604 whole entry): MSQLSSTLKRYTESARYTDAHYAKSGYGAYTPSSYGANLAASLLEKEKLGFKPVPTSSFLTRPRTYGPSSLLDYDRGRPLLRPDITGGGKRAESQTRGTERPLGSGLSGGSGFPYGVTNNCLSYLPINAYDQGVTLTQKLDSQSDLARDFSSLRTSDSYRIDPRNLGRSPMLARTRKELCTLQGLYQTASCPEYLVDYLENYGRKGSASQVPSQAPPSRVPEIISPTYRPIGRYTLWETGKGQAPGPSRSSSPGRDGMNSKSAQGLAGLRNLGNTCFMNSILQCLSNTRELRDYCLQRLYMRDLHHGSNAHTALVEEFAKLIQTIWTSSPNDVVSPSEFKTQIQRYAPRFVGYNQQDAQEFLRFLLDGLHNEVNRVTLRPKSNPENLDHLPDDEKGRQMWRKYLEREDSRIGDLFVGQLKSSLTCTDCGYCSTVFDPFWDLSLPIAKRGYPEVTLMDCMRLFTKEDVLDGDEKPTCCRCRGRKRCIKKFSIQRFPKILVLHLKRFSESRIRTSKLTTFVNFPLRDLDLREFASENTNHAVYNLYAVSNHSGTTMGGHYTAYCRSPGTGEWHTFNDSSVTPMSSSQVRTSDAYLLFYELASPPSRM
Description: Inhibition of USP2 (267 to 599 residues) (unknown origin) expressed in Escherichia coli BL21 (DE3) cells using ubiquitin-rhodamine-110 as substrate preincubated with compound for 30 mins followed by substrate addition measured after 30 mins by fluorometric assay.

In series [2] the target is T2, Ubiquitin carboxyl-terminal hydrolase 8 (Homo sapiens, UniProt P40818).
T2 sequence (P40818 whole entry): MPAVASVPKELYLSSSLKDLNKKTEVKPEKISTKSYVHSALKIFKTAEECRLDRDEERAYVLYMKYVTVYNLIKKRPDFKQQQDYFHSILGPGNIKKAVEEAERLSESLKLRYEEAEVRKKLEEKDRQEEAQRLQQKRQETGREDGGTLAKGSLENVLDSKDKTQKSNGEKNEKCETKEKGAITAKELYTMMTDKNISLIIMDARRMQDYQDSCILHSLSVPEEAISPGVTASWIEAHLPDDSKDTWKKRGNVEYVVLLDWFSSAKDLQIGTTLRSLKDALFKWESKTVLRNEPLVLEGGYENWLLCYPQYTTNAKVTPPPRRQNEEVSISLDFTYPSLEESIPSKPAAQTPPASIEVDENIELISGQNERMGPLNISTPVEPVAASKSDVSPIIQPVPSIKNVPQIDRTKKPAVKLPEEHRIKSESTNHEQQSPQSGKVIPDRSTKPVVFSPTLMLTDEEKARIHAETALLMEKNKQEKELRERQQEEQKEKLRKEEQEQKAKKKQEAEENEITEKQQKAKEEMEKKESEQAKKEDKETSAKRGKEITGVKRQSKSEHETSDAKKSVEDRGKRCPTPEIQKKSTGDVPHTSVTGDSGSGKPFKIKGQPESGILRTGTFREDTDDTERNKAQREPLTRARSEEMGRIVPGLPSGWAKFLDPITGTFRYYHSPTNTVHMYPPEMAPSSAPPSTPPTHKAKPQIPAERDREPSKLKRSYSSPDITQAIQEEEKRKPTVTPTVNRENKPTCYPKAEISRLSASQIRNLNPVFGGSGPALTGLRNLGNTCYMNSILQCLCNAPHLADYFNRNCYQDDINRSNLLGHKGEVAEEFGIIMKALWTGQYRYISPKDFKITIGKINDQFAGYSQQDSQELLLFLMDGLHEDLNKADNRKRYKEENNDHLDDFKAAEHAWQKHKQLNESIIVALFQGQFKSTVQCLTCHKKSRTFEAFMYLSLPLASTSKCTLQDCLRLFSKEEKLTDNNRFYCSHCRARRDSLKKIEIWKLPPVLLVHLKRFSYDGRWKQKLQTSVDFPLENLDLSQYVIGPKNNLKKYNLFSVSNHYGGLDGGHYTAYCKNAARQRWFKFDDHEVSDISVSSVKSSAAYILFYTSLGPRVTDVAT
Description: Inhibition of N-terminal His6 tagged USP8 (734 to 1110 residues) (unknown origin) expressed in Escherichia coli BL21 (DE3) cells using ubiquitin-rhodamine-110 as substrate preincubated with compound for 30 mins followed by substrate addition measured after 30 mins by fluorometric assay.

Series [3] has as its system MCF7. Nature of the series: Antiproliferative activity against human MCF7 cells assessed as inhibition of cell growth incubated for 72 hrs by MTT assay. The format is functional, cell-based. The note with it: MCF7, 72 h. Background: Formazan colour is commonly taken as a measure of viable cells.
The nature of series [4]: Cytotoxicity against human MCF-10A cells assessed as inhibition of cell growth incubated for 72 hrs by MTT assay. The format is toxicity, cell-based.
Series [5] in a line: in vitro. The note with it: mouse, microsomes.
Description: Stability in mouse microsomes assessed as compound remaining measured after 30 mins
Series [6] in a line: in vitro. The note with it: human, microsomes.
Description: Stability in human microsomes assessed as compound remaining measured after 30 mins
Series [7] is described as follows: in vitro. The note with it: mouse, plasma.
Description: Stability in mouse plasma assessed as compound remaining measured after 30 mins
Series [8] addresses T1, Ubiquitin carboxyl-terminal hydrolase 2. Nature of the series: Inhibition of USP2 (unknown origin) using Di-Ub IQF K48-4 as substrate preincubated for 10 mins followed by substrate addition by high-throughput assay.
Series [9] concerns the target T2, Ubiquitin carboxyl-terminal hydrolase 8. Nature of the series: Inhibition of USP8 (unknown origin) using Di-Ub IQF K48-02 as substrate preincubated for 30 mins followed by substrate addition by high-throughput assay.

As to `Cc1ccc(S(=O)(=O)Nc2cc(C(F)(F)F)ccc2C(=O)Nc2nc(-c3ccccc3)cs2)cc1`, the IC50 (usually the point on the concentration scale where inhibition reaches its midpoint) in series [1] amounted to 3.6 µM; in series [2] it was 4.7 µM; in series [3], 9.3 µM. For the same compound, in series [4], the IC50 at 72 h amounted to 14.5 µM. Also, the values for the amount remaining at 0.5 h in series [5], in [6] and in [7] were 72%, more than 90% and more than 90%, respectively.
Take `CCCCS(=O)(=O)Cc1nc2c(nc1CS(=O)(=O)CCCC)C(=O)c1ccccc1C2=O`: the half-maximal inhibitory concentration (IC50) in series [8] was less than 0.8 µM; in series [9], less than 0.1 µM.
